ChEMBL document CHEMBL1141120, “Structure-based design and discovery of protein tyrosine phosphatase inhibitors incorporating novel isothiazolidinone heterocyclic phosphotyrosine mimetics” (J Med Chem, 2005)

Experiments:
[1] = target: T1, Tyrosine-protein phosphatase non-receptor type 1 (Homo sapiens, UniProt P18031); assay: Inhibitory concentration against protein-tyrosine phosphatase
T1 sequence (P18031 whole entry): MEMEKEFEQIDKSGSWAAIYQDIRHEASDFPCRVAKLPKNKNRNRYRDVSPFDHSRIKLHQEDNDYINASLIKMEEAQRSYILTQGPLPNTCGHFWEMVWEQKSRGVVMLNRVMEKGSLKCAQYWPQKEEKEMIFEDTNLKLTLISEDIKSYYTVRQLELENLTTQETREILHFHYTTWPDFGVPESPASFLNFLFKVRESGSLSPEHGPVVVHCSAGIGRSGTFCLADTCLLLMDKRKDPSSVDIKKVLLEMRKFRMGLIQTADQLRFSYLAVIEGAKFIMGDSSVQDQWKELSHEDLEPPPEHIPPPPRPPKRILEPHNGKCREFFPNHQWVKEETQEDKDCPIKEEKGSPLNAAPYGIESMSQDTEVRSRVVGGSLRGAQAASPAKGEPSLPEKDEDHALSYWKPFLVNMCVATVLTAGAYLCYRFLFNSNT

[2] = target: T1, Tyrosine-protein phosphatase non-receptor type 1; assay: Inhibition constant against protein-tyrosine phosphatase 1B by PNPP enzyme assay
[3] = target: T2, Tyrosine-protein phosphatase non-receptor type 2 (Homo sapiens, UniProt P17706); assay: Inhibitory concentration against T cell protein tyrosine phosphatase
T2 sequence (P17706 whole entry): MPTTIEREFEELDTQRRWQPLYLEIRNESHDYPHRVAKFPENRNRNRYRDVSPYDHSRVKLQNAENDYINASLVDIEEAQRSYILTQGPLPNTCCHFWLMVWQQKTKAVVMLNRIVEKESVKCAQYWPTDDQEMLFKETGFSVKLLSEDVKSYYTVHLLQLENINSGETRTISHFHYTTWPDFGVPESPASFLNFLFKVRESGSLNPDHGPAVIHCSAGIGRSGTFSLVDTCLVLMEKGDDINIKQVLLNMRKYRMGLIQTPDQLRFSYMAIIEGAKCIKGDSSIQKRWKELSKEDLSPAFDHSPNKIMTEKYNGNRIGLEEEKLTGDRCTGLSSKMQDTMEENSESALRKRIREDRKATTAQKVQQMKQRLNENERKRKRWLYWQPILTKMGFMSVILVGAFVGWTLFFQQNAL

IC50 [1]: > 100000 nM
Ki [2]: 180 nM
IC50 [3]: 135 nM
SMILES: CC(=O)N[C@@H](Cc1ccccc1)C(=O)N[C@@H](Cc1ccc([C@@H]2CC(=O)NS2(=O)=O)cc1)C(N)=O
